Assays:
[1] = system: Colo205 and HT29 xenograft tumors; experiment: Colon tumor xenograft model; format: in vivo, Balb/c (nu/nu) mice; conditions: i.p. 50, 100 or 150 mg/kg; tumor weight by calipers
Method: To test the ability of the Chk1 inhibitors to enhance the killing of tumors by 5-FU in mice, xenograft tumor models using colon tumor cell lines were established. Colo205 and HT29 cells (human colon carcinoma) were used to propagate xenograft tumors in 6-8 week old female […] Balb/c (nu/nu) mice. Mice were maintained in a laminar airflow cabinet under pathogen-free conditions and fed sterile food and water ad libitum. Cell lines were grown to subconfluence in RPMI 1640 media supplemented with 10% FBS, 100 U/mL penicillin, 100 μg/mL streptomycin, and 1.5 mM L-glutamine in a 5% CO2 humidified environment. Single cell suspensions were prepared in CMF-PBS, and cell concentration adjusted to 1×10^8 cells/mL. Mice were inoculated subcutaneously (s.c). on the right flank or right leg with a total of 1×10^7 cells (100 μL).
Mice were randomized (5 mice/group) into four treatment groups and used when tumors reached a weight of 75-100 mg (usually 7-11 days post-inoculation). Tumors were measured with vernier calipers and tumor weights were estimated using the empirically derived formula: tumor weight (mg)=tumor length (mm)×tumor width (mm)^2/3.3. Treatment consisted of i) 100 μL intraperitoneal (i.p). injection of 5-FU at 50 mg/kg, 100 mg/kg, or 150 mg/kg. […] Tumor size was monitored every other day for the duration of the experiment.

human tumor cell lines = experiment: Enhancement of cell killing by chemotherapeutic drugs (3H-thymidine uptake); format: cell-based
Method: To test the hypothesis that inhibition of Chk1 potentiates the killing effect of DNA-damaging agents, cells were incubated in the presence of selective Chk1 inhibitors and either irradiation or chemical DNA-damaging agents. Cells plated at a density of 1000-2000 per well in 96-well microtitre plates were grown in RMPI 1640 containing 10% FBS, 100 U/mL penicillin and 100 μg/mL streptomycin for 18 hours at 37° C. in a humidified incubator with 5% CO2. Cells tested included HeLa, ACHN, 786-0, HCT116, SW620, HT29, Colo205, SK-MEL-5, SK-MEL-28, A549, H322, OVCAR-3, SK-OV-3, MDA-MB-231, MCF-7, PC-3, HL-60, K562, and MOLT4. All cell line designations refer to human cell lines and refer to the following:
Cells were treated with media containing chemotherapeutic drugs alone or chemotherapeutic drugs and Compounds 12 and 29. Cells were incubated for approximately 5 days before growth was measured by determination of levels of ^3H-thymidine uptake. Chemotherapeutic drugs included etoposide, doxorubicin, cisplatin, chlorambucil, 5-fluorouracil (5-FU). The drug concentration necessary to inhibit cell growth to 90% of untreated control cells was defined as the GL90. At concentrations less than 100 μM, Compounds 12 and 29 enhanced the killing of 5-FU from 2- to 10-fold.
Compounds 2 and 12 were tested with additional antimetabolites, including methotrexate, hydroxyurea, 2-chloroadenosine, fludarabine, azacytidine, and gemcitibine for an ability to enhance killing of the agents.

COc1cc(CN)ccc1NC(=O)Nc1cnc(C)cn1 [Compound 342, 1-(4-Aminomethyl-2-methoxy-phenyl)-3-(5-methyl-pyrazin-2-yl)-urea]
melting point: 168 to 169 °C

O=c1[nH]cc(F)c(=O)[nH]1 [Compound 5-FU, 5-fluorouracil]
tumor growth [1]: dose-dependent delay in tumor growth

COc1cc(CN(C)Cc2ccccc2)ccc1NC(=O)Nc1cnc(C)cn1 [Compound 340, 1-{4-[(Benzyl-methyl-amino)-methyl]-2-methoxy-phenyl}-3-(5-methyl-pyrazin-2-yl)-urea]
melting point: 142 to 143 °C

COc1cc(NC(=O)CCNC2CCCC2)ccc1NC(=O)Nc1cnccn1 [Compound 2, 3-cyclopentylamino-N-[3-methoxy-4-(3-pyrazin-2-yl-ureido)phenyl]-propionamide]
enhancement of killing of cells to 5-azacytidine (human tumor cell lines; combination with 5-azacytidine): enhance the killing of cells
enhancement of killing of cells to fludarabine (human tumor cell lines; combination with fludarabine): enhance the killing of cells
enhancement of killing of cells to hydroxyurea (human tumor cell lines; combination with hydroxyurea): enhance the killing of cells
enhancement of killing of cells to methotrexate (human tumor cell lines; combination with methotrexate): enhance the killing of cells
